ChEMBL document CHEMBL5665443, “Enzyme Inhibitor Single Concentration assay results for EUbOPEN Chemogenomics Library” (2024)

How the values were obtained:
[1] = biological target: Methyl-CpG-binding domain protein 4 (Homo sapiens) (UniProt O95243); settings: Hit No;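 also: MBD4 activity read as fluorescence at 594 nm from cleavage and release of a quenched duplex DNA oligonucleotide, with APE1 coupled to incise the strand and raise turnover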
Description: Inhibition of MBD4 by quantifying inhibition of MBD4-mediated cleavage and dissociation of quenched duplex DNA oligonucleotides, measured as fluorescence at 594 nm. To generate a functional strand incision and increase turn-over this assay is coupled to APE1.

[2] = biological target: G/T mismatch-specific thymine DNA glycosylase (Homo sapiens) (UniProt Q13569); settings: Hit No;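 also: human TDG cleavage of quenched duplex DNA oligonucleotides coupled to APE1, strand release read as fluorescence at 594 nm, inhibition of TDG activity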
Sequence of G/T mismatch-specific thymine DNA glycosylase (Homo sapiens) (Q13569 whole entry): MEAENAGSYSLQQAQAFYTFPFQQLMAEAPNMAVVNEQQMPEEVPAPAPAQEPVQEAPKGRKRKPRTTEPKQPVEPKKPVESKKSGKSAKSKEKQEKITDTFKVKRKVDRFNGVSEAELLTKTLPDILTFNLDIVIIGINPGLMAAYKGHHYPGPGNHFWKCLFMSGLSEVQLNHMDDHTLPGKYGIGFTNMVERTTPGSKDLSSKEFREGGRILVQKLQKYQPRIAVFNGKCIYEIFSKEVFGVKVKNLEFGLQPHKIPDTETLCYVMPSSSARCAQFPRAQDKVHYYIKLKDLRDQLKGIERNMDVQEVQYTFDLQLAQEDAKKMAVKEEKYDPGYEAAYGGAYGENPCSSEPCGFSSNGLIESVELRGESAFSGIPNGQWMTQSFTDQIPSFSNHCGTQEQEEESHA
Description: Inhibition of TDG by quantifying inhibition of TDG-mediated cleavage and dissociation of quenched duplex DNA oligonucleotides, measured as fluorescence at 594 nm. To generate a functional strand incision and increase turn-over this assay is coupled to APE1.

[3] = biological target: T1, Single-strand selective monofunctional uracil DNA glycosylase (Homo sapiens) (UniProt Q53HV7); settings: Compound Concentration 10.0 uM, Hit No;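 also: enzymatic SMUG1 assay coupled with APE1, reading fluorescence at 594 nm released when a quenched double-stranded DNA oligonucleotide substrate is cleaved and separated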
T1 sequence (whole entry): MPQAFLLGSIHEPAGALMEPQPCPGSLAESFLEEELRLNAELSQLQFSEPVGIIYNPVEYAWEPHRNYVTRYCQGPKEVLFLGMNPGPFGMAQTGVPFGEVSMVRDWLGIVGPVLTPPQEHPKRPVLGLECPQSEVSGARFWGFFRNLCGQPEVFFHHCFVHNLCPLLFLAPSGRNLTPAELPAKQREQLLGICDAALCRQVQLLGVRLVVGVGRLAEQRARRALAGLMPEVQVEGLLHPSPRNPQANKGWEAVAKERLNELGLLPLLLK
Description: Inhibition of SMUG1 by quantifying inhibition of SMUG1-mediated cleavage and dissociation of quenched duplex DNA oligonucleotides, measured as fluorescence at 594 nm. To generate a functional strand incision and increase turn-over this assay is coupled to APE1.

[4] = biological target: Endonuclease 8-like 1 (Homo sapiens) (UniProt Q96FI4); settings: Hit No;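 also: fluorescence at 594 nm from quenched duplex DNA oligonucleotides released by NEIL1 cleavage and strand separation, reported as reduction of this enzyme activity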
Sequence of Endonuclease 8-like 1 (Homo sapiens) (Q96FI4 whole entry): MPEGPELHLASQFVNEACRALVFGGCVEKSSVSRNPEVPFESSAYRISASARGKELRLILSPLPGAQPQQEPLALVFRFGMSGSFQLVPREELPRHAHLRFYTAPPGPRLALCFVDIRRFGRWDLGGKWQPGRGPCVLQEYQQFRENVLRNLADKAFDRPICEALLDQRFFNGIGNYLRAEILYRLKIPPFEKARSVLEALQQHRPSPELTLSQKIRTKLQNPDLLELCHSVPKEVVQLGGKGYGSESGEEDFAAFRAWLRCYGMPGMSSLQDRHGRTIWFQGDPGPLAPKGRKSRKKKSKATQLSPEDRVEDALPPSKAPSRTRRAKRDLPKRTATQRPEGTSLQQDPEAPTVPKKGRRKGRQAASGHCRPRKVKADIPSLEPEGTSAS
Description: Inhibition of NEIL1 by quantifying inhibition of NEIL1-mediated cleavage and dissociation of quenched duplex DNA oligonucleotides, measured as fluorescence at 594 nm.

[5] = biological target: N-glycosylase/DNA lyase (Homo sapiens) (UniProt O15527); settings: Compound Concentration 10.0 uM, Hit No;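 also: OGG1 cleavage of a quenched duplex DNA oligonucleotide, coupled to APE1 for strand incision, read as fluorescence at 594 nm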
Sequence of N-glycosylase/DNA lyase (Homo sapiens) (O15527 whole entry): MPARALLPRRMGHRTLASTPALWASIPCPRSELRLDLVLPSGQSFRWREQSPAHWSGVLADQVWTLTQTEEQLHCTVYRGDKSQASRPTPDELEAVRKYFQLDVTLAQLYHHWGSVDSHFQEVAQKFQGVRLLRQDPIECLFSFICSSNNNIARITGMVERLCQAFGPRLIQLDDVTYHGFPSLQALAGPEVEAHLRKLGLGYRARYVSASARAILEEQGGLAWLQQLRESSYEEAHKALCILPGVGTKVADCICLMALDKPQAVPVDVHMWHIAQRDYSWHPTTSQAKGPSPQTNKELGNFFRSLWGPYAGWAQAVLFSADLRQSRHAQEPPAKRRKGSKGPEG
Description: Inhibition of OGG1 by quantifying inhibition of OGG1-mediated cleavage and dissociation of quenched duplex DNA oligonucleotides, measured as fluorescence at 594 nm. To generate a functional strand incision and increase turn-over this assay is coupled to APE1.

[6] = biological target: T2, Endonuclease 8-like 2 (Homo sapiens) (UniProt Q969S2); settings: Compound Concentration 10.0 uM, Hit No;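 also: fluorescence at 594 nm reports NEIL2 cutting and release of a quenched double-stranded DNA oligo substrate, reduced signal read as inhibition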
T2 sequence (whole entry): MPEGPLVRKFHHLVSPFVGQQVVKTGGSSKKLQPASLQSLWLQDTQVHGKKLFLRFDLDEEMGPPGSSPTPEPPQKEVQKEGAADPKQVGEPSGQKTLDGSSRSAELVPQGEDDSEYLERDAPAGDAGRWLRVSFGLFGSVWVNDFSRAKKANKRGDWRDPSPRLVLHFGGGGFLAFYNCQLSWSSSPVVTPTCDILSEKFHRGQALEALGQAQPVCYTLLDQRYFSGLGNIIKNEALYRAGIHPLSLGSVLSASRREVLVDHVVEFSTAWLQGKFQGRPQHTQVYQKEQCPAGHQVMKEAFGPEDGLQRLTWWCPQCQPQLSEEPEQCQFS
Description: Inhibition of NEIL2 by quantifying inhibition of NEIL2-mediated cleavage and dissociation of quenched duplex DNA oligonucleotides, measured as fluorescence at 594 nm.

[7] = biological target: Uracil-DNA glycosylase (Homo sapiens) (UniProt P13051); settings: Hit No;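 also: UNG excision on a quenched double-stranded DNA oligo probe, with APE1 added for strand incision and turnover, read as fluorescence at 594 nm as strands separate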
Sequence of Uracil-DNA glycosylase (Homo sapiens) (P13051 whole entry): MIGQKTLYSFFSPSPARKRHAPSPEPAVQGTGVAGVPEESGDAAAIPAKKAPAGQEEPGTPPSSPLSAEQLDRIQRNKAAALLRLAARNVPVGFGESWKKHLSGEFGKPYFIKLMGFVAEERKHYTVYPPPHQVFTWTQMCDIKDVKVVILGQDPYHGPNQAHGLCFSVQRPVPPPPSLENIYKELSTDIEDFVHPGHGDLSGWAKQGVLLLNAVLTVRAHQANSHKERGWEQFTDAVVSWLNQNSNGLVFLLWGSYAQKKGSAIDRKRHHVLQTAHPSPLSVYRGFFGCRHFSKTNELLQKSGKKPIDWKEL
Description: Inhibition of UNG by quantifying inhibition of UNG-mediated cleavage and dissociation of quenched duplex DNA oligonucleotides, measured as fluorescence at 594 nm. To generate a functional strand incision and increase turn-over this assay is coupled to APE1.

Sequence of Methyl-CpG-binding domain protein 4 (Homo sapiens) (O95243 whole entry, the tested form may be a part): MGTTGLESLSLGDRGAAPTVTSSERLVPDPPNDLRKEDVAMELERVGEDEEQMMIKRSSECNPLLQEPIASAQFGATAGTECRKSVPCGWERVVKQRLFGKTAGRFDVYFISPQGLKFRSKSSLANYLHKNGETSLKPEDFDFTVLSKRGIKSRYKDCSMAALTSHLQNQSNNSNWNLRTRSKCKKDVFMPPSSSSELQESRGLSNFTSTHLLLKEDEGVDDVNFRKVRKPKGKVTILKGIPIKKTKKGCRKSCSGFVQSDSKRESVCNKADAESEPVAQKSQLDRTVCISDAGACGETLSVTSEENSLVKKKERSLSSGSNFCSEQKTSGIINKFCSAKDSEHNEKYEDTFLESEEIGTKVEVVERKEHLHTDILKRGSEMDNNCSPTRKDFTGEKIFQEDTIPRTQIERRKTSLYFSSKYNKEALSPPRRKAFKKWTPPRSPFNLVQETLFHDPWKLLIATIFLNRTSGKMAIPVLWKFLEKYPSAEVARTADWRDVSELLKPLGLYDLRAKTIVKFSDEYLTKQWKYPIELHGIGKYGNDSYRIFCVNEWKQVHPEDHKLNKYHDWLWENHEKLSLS

| Structure (SMILES) | inhibition ([1]; Compound Concentration 10.0 uM) [%] | inhibition ([2]; Compound Concentration 10.0 uM) [%] | inhibition [3] [%] | inhibition ([4]; Compound Concentration 10.0 uM) [%] | inhibition [5] [%] | inhibition [6] [%] | inhibition ([7]; Compound Concentration 10.0 uM) [%] | inhibition ([1]; Compound Concentration 1.0 uM) [%] | inhibition ([2]; Compound Concentration 1.0 uM) [%] | inhibition ([7]; Compound Concentration 1.0 uM) [%] | inhibition ([4]; Compound Concentration 1.0 uM) [%] |
| --- | --- | --- | --- | --- | --- | --- | --- | --- | --- | --- | --- |
| N=C(N)SCCc1c[nH]cn1 | 11.4 | -1.52 | -7.4 | -8.06 | -6.9 |  |  |  |  |  |  |
| O=C(Cc1ccc(Cl)c(Cl)c1)N1CCCC[C@H]1CN1CCCC1 |  |  | -3.13 | -3.91 | 2.1 | -2.48 | -9.61 |  |  |  |  |
| O=C(N[C@@H]1CC[C@@H](c2cccc(F)c2F)CN(CC(F)(F)F)C1=O)N1CCC(n2c(=O)[nH]c3ncccc32)CC1 |  | 0.452 |  | -5.1 | -8.48 | 4.76 |  |  |  |  |  |
| N#Cc1cccc(C(=O)Nc2cc(-c3ccccc3)nn2-c2ccccc2)c1 |  | -2.1 | -0.276 | -1.98 | -5.93 | 0.764 |  |  |  |  |  |
| CC[C@H]1OC(=O)[C@H](C)[C@@H](O[C@H]2C[C@@](C)(OC)[C@@H](O)[C@H](C)O2)[C@H](C)[C@@H](O[C@@H]2O[C@H](C)C[C@H](N(C)C)[C@H]2O)[C@@]2(C)CC(C)=C(O2)[C@H](C)[C@@H](O)[C@]1(C)O |  | 0.145 | -6.48 | 3.06 |  | 4.76 |  |  |  |  |  |
| Cc1ccc(NC(=O)Nc2cc(C(F)(F)F)ccc2F)cc1Nc1ccc2c(c1)NC(=O)/C2=C\c1ccc[nH]1 |  |  |  |  |  |  |  | -5.4 | 24.1 | -3.3 | -7.79 |
| N#Cc1ccc2[nH]cc(CCCCN3CCN(c4ccc5oc(C(N)=O)cc5c4)CC3)c2c1 |  | -5.72 | 10.3 | 14.2 | -2.53 |  | -7.29 |  |  |  |  |
| Cn1c(-c2csc(C3CCN(CC4=NC5N=CC=CC5N4)CC3)n2)nc2ccccc21 (configuration not stated) | -3.01 | 20.6 |  | -1.5 | -1.15 | -5.34 |  |  |  |  |  |
| COc1cc(N2CCC(O)CC2)ccc1Nc1cc(Nc2ccccc2S(=O)(=O)C(C)C)c2cc[nH]c2n1 | 13.6 | 52.6 | 4.55 |  | 21.1 |  | 3.96 |  |  |  |  |
| Clc1ccc(CCCOCCCN2CCCCC2)cc1 |  | 8.64 | -0.857 | -3.47 |  | -5.97 | -8.48 |  |  |  |  |
| Cc1nc(-c2ccc(-c3ccc(C(=O)N4CCc5cc6c(cc54)C4(CCN(C)CC4)CO6)cc3)c(C)c2)no1 | 2.3 | -5.26 |  | -7.62 |  | -3.48 |  |  |  |  |  |
| Nc1ccc(C(=O)Nc2cccc(-c3nc(N4CCOCC4)c4oc5ncccc5c4n3)c2)cn1 | -6.46 | 7.37 | 9.56 | -5.94 | 23 |  | 2.33 |  |  |  |  |
| Cc1c(C(=O)O)cc(-c2ccc(C3CCNCC3)cc2)c2ccc(-c3ccc(C(F)(F)F)cc3)cc12 |  | 44.3 | 4.5 | -6.8 | 11.4 | -4.83 | 3.66 |  |  |  |  |
| O=C(c1ccc(F)c(F)c1Nc1ccc(I)cc1F)N1CC(O)([C@@H]2CCCCN2)C1 | 21.9 | 45 | 13.1 |  |  |  | 7.28 |  |  |  |  |
| CC(C=CC1=C(C)CCCC1(C)C)=CC=CC(C)=CC(=O)O | 57.7 | 96.3 | 8.2 |  | 83.6 | -4.83 | -0.014 |  |  |  |  |
| CC(C)COc1ccc(CNC(=O)N(Cc2ccc(F)cc2)C2CCN(C)CC2)cc1 |  | -0.163 |  | 2.32 | -7.83 | 8 |  |  |  |  |  |
| CC(=O)C1=C(C)N(c2cccc(C(F)(F)F)c2)C(=O)N[C@@H]1c1ccc(C#N)nc1 | 51.4 | 45.6 | -3.19 |  | -1.15 | 3.85 | 2.25 |  |  |  |  |
| CCCCCCCCCCCCCCCCOC[C@H](COP(=O)([O-])OCC[N+](C)(C)C)OC(C)=O |  |  |  | -4.5 | 31.6 | -9.72 | -5.53 |  |  |  |  |
| Cc1cc2c(-c3ccco3)cnc(N[C@H]3CCN(C)C[C@@H]3C(=O)NC3CCCCC3)c2[nH]c1=O | 29.8 | 22.3 |  | 0.316 |  | -2.27 | -1.62 |  |  |  |  |
